According to article PMC3608651, “A Broad Profile of Co-Dominant Epitopes Shapes the Peripheral Mycobacterium tuberculosis Specific CD8+ T-Cell Immune Response in South African Patients with Active Tuberculosis” (PLoS ONE, 2013):

Assays:
Type in all cases: binding
HLA-A*02:01 [1] = target: T1, HLA-A*02:01 (Homo sapiens, UniProt P04439, D140Y/D185E/D98H/E176V/E277Q/G131W/G231S/I119V/I121R/I166T/I218V/L300P/L318F/N151K/N90K/P208A/P217A/Q86G/Q94H/R138H/R169H/T345S); conditions: percent relative the binding of positive control peptide […]; plate-bound monomer 0.5 µg/ml; duplicated experiments; positive binder >40%
HLA-A*02:01 [2] = target: T1, HLA-A*02:01; conditions: […]; peptide quantity for 50% binding saturation
HLA-A*02:01 [3] = target: T1, HLA-A*02:01; conditions: time points 0-8 h; time when 50% of peptide has dissociated
HLA-A*24:02 [4] = target: T2, HLA-A*24:02 (Homo sapiens, UniProt P04439, D101N/D140Y/D185E/E176V/E190D/F33S/G103R/G107R/I119L/I121M/I306V/K335N/L105A/L180Q/L300P/N151K/N90K/Q86E/Q94H/R106L/R138H/R89G/T104I/T345S/V100E/W191G/Y123F); conditions: percent relative the binding of positive control peptide […]; duplicated experiments; positive binder >40%
HLA-A*30:01 [5] = target: T3, HLA-A*30:01 (Homo sapiens, UniProt P04439, D140H/D185E/E176W/F33S/G80R/H175R/K168Q/R138E/R41S); conditions: percent relative the binding of positive control peptide […]; duplicated experiments; positive binder >40%
HLA-A*30:02 [6] = target: T4, HLA-A*30:02 (Homo sapiens, UniProt P04439, D101N/D140H/D185E/E176R/F33S/G80R/H175R/K168Q/Q94H/R138E/R41S/V100E); conditions: percent relative the binding of positive control peptide […]; duplicated experiments; positive binder >40%
HLA-A*30:02 [7] = target: T4, HLA-A*30:02
HLA-A*30:02 [8] = target: T4, HLA-A*30:02; conditions: time points 0-8 h
HLA-A*68:01 [9] = target: T5, HLA-A*68:01 (Homo sapiens, UniProt P04439, A269V/D185E/E176V/E277Q/E87N/F33Y/G231S/I121M/I166T/I218V/L180W/L300P/L318F/N151K/P208A/P217A/Q86R/R169H/T345S); conditions: percent relative the binding of positive control peptide […]; duplicated experiments; positive binder >40%
HLA-A*68:01 [10] = target: T5, HLA-A*68:01
HLA-A*68:01 [11] = target: T5, HLA-A*68:01; conditions: time points 0-8 h
HLA-B*07:02 [12] = target: T6, HLA-B*07:02 (Homo sapiens, UniProt P01889); conditions: percent relative the binding of positive control peptide […]; duplicated experiments; positive binder >40%
HLA-B*07:02 [13] = target: T6, HLA-B*07:02; assay: affinity assay (ED50); conditions: peptide titrated 10−4 to 10−9 M
HLA-B*07:02 [14] = target: T6, HLA-B*07:02; assay: off-rate assay (t1/2); conditions: time points 0-8 h
HLA-B*58:01 [15] = target: T7, HLA-B*58:01 (Homo sapiens, UniProt P01889, A329T/C349S/D201E/D98Y/E176V/E187L/E204Q/E69T/G107R/I218V/I90N/K202T/L105A/L119I/N104I/N87E/Q89R/Q94S/R106L/R155S/R180L/R86G/S101N/S121R/S35A/S48A/T118I/V127L/V306I/V36M/Y140S/Y91M); conditions: percent relative the binding of positive control peptide […]; duplicated experiments; positive binder >40%
HLA-C*07:01 [16] = target: T8, HLA-C*07:01 (Homo sapiens, UniProt P10321, K90N/S123Y); conditions: percent relative the binding of positive control peptide […]; duplicated experiments; positive binder >40%
HLA-C*07:01 [17] = target: T8, HLA-C*07:01; assay: affinity assay (ED50)
HLA-C*07:01 [18] = target: T8, HLA-C*07:01; assay: off-rate assay (t1/2); conditions: time points 0-8 h
HLA-A*30:01 [19] = target: T3, HLA-A*30:01; assay: affinity assay (ED50); conditions: peptide titrated 10−4 to 10−9 M
HLA-A*30:01 [20] = target: T3, HLA-A*30:01; assay: off-rate assay (t1/2); conditions: time points 0-8 h
HLA-B*58:01 [21] = target: T7, HLA-B*58:01
HLA-B*58:01 [22] = target: T7, HLA-B*58:01; conditions: time points 0-8 h
HLA-A*24:02 [23] = target: T2, HLA-A*24:02
HLA-A*24:02 [24] = target: T2, HLA-A*24:02; conditions: time points 0-8 h

Substance	Bind A*02:01 (HLA-A*02:01 [1]) [%]	Aff A*02:01 (ED50) (HLA-A*02:01 [2])	O-rate A*02:01 (t1/2) (HLA-A*02:01 [3]) [min]	Bind A*24:02 (HLA-A*24:02 [4]) [%]	Bind A*30:01 (HLA-A*30:01 [5]) [%]	Bind A*30:02 (HLA-A*30:02 [6]) [%]	Aff A*30:02 (ED50) (HLA-A*30:02 [7])	O-rate A*30:02 (t1/2) (HLA-A*30:02 [8]) [min]	Bind A*68:01 (HLA-A*68:01 [9]) [%]	Aff A*68:01 (ED50) (HLA-A*68:01 [10])	O-rate A*68:01 (t1/2) (HLA-A*68:01 [11]) [min]	Bind B*07:02 (HLA-B*07:02 [12]) [%]	Aff B*07:02 (ED50) (HLA-B*07:02 [13])	O-rate B*07:02 (t1/2) (HLA-B*07:02 [14]) [min]	Bind B*58:01 (HLA-B*58:01 [15]) [%]	Bind C*07:01 (HLA-C*07:01 [16]) [%]	Aff A*30:01 (ED50) (HLA-A*30:01 [19])	O-rate A*30:01 (t1/2) (HLA-A*30:01 [20]) [min]	Aff B*58:01 (ED50) (HLA-B*58:01 [21])	O-rate B*58:01 (t1/2) (HLA-B*58:01 [22]) [min]	other results
LSMAGSSAM	72	2e-07 M	84	14	0	79	3E -06 M	66	51	1E -06 M	132	92	3E -07 M	156	0	71	–	–	–	–	Aff C*07:01 (ED50) (HLA-C*07:01 [17]): 3E -06 M; O-rate C*07:01 (t1/2) (HLA-C*07:01 [18]): 72 min
AAYHPQQFI	56	6E -07 M	72	54	83	34	–	–	47	3E -05 M	228	9	–	–	64	0	2E -07 M	30	4E -08 M	48	–
MGRDIKVQF	0	–	–	25	0	61	7e-08 M	18	10	–	–	41	8e-07 M	18	61	68	–	–	3e-07 M	18	Aff C*07:01 (ED50) (HLA-C*07:01 [17]): 8e-08 M; O-rate C*07:01 (t1/2) (HLA-C*07:01 [18]): 12 min
VANNT RLWV	77	5E -07 M	150	58	141	171	1e-07 M	48	3	–	–	61	6e-07 M	42	49	69	3E -08 M	30	1e-08 M	114	Aff A*24:02 (ED50) (HLA-A*24:02 [23]): 4000 nM; O-rate A*24:02 (t1/2) (HLA-A*24:02 [24]): 18 min; Aff C*07:01 (ED50) (HLA-C*07:01 [17]): 3E -07 M; O-rate C*07:01 (t1/2) (HLA-C*07:01 [18]): 36 min
WL S ANR AV K	13	–	–	40	179	6	–	–	139	2E -07 M	126	49	2E -06 M	42	1	16	1E -06 M	30	–	–	–
YAGSLSALL	66	–	–	81	0	64	2e-07 M	54	13	–	–	41	1e-05 M	36	58	19	–	–	3E -08 M	42	Aff A*24:02 (ED50) (HLA-A*24:02 [23]): 1000 nM; O-rate A*24:02 (t1/2) (HLA-A*24:02 [24]): 72 min
AMKGDLQSS	89	2E -07 M	102	42	129	47	1E -07 M	120	0	–	–	9	–	–	0	23	2E -06 M	30	–	–	Aff A*24:02 (ED50) (HLA-A*24:02 [23]): 400000 nM; O-rate A*24:02 (t1/2) (HLA-A*24:02 [24]): 18 min
